Experimental data as given in patent US20130143835A1, “HCV Polymerase Inhibitors” (MEDIVIR AB, priority 2011, published 2013).

biological target: T1, HCV NS5B-21 (Hepatitis C virus genotype 1b, UniProt Q9WMX2); assay: HCV NS5B-21 enzyme assay (SPA, 3H-ATP incorporation); format: biochemical; conditions: HCV NS5B-21 SPA enzyme assay, triphosphate tested
T1 construct: HCV NS5B-21 (21-aminoacid C-terminally truncated version); purchased Replizyme
Method: It is this triphosphate which is believed to be the antivirally active species. The enzyme assay described here example may be used to confirm that compounds of the invention are antivirally active as the 5′-triphosphate metabolite.
The enzyme assay measures the inhibitory effect of triphosphate compounds in an HCV NS5B-21 (21-aminoacid C-terminally truncated version) SPA assay (scintillation proximity assay). The assay is performed by evaluating the amount of radiolabelled ATP incorporated by HCV NS5B-21 into newly synthesized RNA using an heterogeneous biotinylated RNA template.
To determine IC50 values the compounds are tested at various concentrations in a final volume of 100 μl of reaction mixture. The reaction is stopped by addition of 0.5M EDTA solution. The samples are transferred into flashplates precoated with streptavidin. The incorporated radioactivity is quantified using a scintillation counter (Wallac Microbeta Trilux).
The assay should include enzyme controls (about four, containing 1 μl DMSO instead of inhibitor) and background control containing all ingredients except template.
Compounds are serially diluted in DMSO on a separate dilution plate to 100× the final desired assay concentrations. […]
Incubate the plate over night and read the flash plate in the Microbeta Trilux using the protocol Flash plates H3. […]
IC50 is determined using Graphpad Prism. […]

SMILES | IC50
C[C@@]1(N)[C@H](O)[C@@H](COP(=O)(O)OP(=O)(O)OP(=O)(O)O)O[C@H]1n1ccc(=O)[nH]c1=O [Example 3, potassium ((2R,3S,4R,5R)-4-amino-5-(2,4-dioxo-3,4-dihydropyrimidin-1(2H)-yl)-3-hydroxy-4-methyltetrahydrofuran-2-yl)methyl triphosphate] | 13000 nM

test system: HCV type 1b replicon in Huh-7 luc/neo (Huh-Luc) cells; assay: HCV replicon assay (Huh-Luc cells, luciferase read-out); format: cell-based; conditions: Hepatitis C virus, Huh-7, 72 h, inhibition of HCV replication, three days incubation, luciferase activity
Description: The in vitro antiviral activity against HCV of the compounds of formula I can be tested in a cellular HCV replicon system based on Lohmann et al. (1999) Science 285:110-113, with the further modifications described by Krieger et al. (2001) Journal of Virology 75: 4614-4624 (incorporated herein by reference), which is further exemplified in the examples section. This model, while not a complete infection model for HCV, is widely accepted as the most robust and efficient model of autonomous HCV RNA replication currently available. It will be appreciated that it is important to distinguish between compounds that specifically interfere with HCV functions from those that exert cytotoxic or cytostatic effects in the HCV replicon model, and as a consequence cause a decrease in HCV RNA or linked reporter enzyme concentration. Assays are known in the field for the evaluation of cellular cytotoxicity based for example on the activity of mitochondrial enzymes using fluorogenic redox dyes such as resazurin. Furthermore, cellular counter screens exist for the evaluation of non-selective inhibition of linked reporter gene activity, such as firefly luciferase. Appropriate cell types can be equipped by stable transfection with a luciferase reporter gene whose expression is dependent on a constitutively active gene promoter, and such cells can be used as a counter-screen to eliminate non-selective inhibitors.
The compounds of formula I may be examined for activity in the inhibition of HCV RNA replication in a cellular assay aimed at identifying compounds that inhibit a HCV functional cellular replicating cell line, also known as HCV replicons. A suitable cellular assay is based on a bicistronic expression construct, as described by Lohmann et al. (1999), Science vol. 285 pp. 110-113 with modifications described by Krieger et al. (2001), Journal of Virology 75: 4614-4624, in a multi-target screening strategy.
The assay utilizes the stably transfected cell line Huh-7 luc/neo (hereafter referred to as Huh-Luc). This cell line harbors an RNA encoding a bicistronic expression construct comprising the wild type NS3-NS5B regions of HCV type 1b translated from an Internal Ribosome Entry Site (IRES) from encephalomyocarditis virus (EMCV), preceded by a reporter portion (FfL-luciferase), and a selectable marker portion (neo^R, neomycine phosphotransferase). The construct is bordered by 5′ and 3′ NTRs (non-translated regions) from HCV type 1b. Continued culture of the replicon cells in the presence of G418 (neo^R) is dependent on the replication of the HCV RNA. The stably transfected replicon cells that express HCV RNA, which replicates autonomously and to high levels, encoding inter alia luciferase, are used for screening the antiviral compounds.
The replicon cells are plated in 384 well plates in the presence of the test and control compounds which are added in various concentrations. Following an incubation of three days, HCV replication is measured by assaying luciferase activity (using standard luciferase assay substrates and reagents and a Perkin Elmer ViewLux™ ultraHTS microplate imager). Replicon cells in the control cultures have high luciferase expression in the absence of any inhibitor. The inhibitory activity of a compound on luciferase activity is monitored on the Huh-Luc cells, enabling a dose-response curve for each test compound. EC50 values are then calculated, which value represents the amount of the compound required to decrease the level of detected luciferase activity by 50%, or more specifically, the ability of the genetically linked HCV replicon RNA to replicate.

SMILES | EC50
CCCOC(=O)[C@H](C)NP(=O)(OC[C@H]1O[C@@H](n2ccc(=O)[nH]c2=O)[C@](C)(N)[C@@H]1O)Oc1ccccc1 (single isomer, unassigned) [Example 24A] | 2900 nM

same assay, conditions: inhibition of HCV replication, three days incubation, luciferase activity

SMILES | EC50
CCOC(=O)[C@H](C)NP(=O)(OC[C@H]1O[C@@H](n2ccc(=O)[nH]c2=O)[C@](C)(N)[C@@H]1O)Oc1ccccc1 (single isomer, unassigned) [Example 11B] | 980 nM
CC(C)OC(=O)[C@H](C)NP(=O)(OC[C@H]1O[C@@H](n2ccc(=O)[nH]c2=O)[C@](C)(N)[C@@H]1O)Oc1ccccc1 (single isomer, unassigned) [Example 9A] | 13000 nM
CCC(CC)COC(=O)[C@H](C)NP(=O)(OC[C@H]1O[C@@H](n2ccc(=O)[nH]c2=O)[C@](C)(N)[C@@H]1O)Oc1ccccc1 (single isomer, unassigned) [Example 20A] | 1600 nM
CCC[C@H](C)OC(=O)[C@@H](C)NP(=O)(OC[C@H]1O[C@@H](n2ccc(=O)[nH]c2=O)[C@](C)(N)[C@@H]1O)Oc1ccccc1 (single isomer, unassigned) [Example 25A] | 4700 nM
C[C@H](NP(=O)(OC[C@H]1O[C@@H](n2ccc(=O)[nH]c2=O)[C@](C)(N)[C@@H]1O)Oc1ccccc1)C(=O)OC1CCCCCC1 (single isomer, unassigned) [Example 7A] | 3000 nM
C[C@H](NP(=O)(OC[C@H]1O[C@@H](n2ccc(=O)[nH]c2=O)[C@](C)(N)[C@@H]1O)Oc1ccccc1)C(=O)OCc1ccccc1 (single isomer, unassigned) [Example 15B] | 660 nM
C[C@H](NP(=O)(OC[C@H]1O[C@@H](n2ccc(=O)[nH]c2=O)[C@](C)(N)[C@@H]1O)Oc1ccccc1)C(=O)OC1CCC1 (single isomer, unassigned) [Example 8B] | 800 nM
C[C@H](NP(=O)(OC[C@H]1O[C@@H](n2ccc(=O)[nH]c2=O)[C@](C)(N)[C@@H]1O)Oc1ccccc1)C(=O)OC1CCCCCCC1 (single isomer, unassigned) [Example 10A] | 15000 nM
C[C@H](NP(=O)(OC[C@H]1O[C@@H](n2ccc(=O)[nH]c2=O)[C@](C)(N)[C@@H]1O)Oc1ccccc1)C(=O)OCC1CC1 (single isomer, unassigned) [Example 26B] | 760 nM
C[C@@]1(N)[C@H](O)[C@@H](COP(=O)(O)O)O[C@H]1n1ccc(=O)[nH]c1=O [Example 4, ((2R,3S,4R,5R)-4-amino-5-(2,4-dioxo-3,4-dihydropyrimidin-1(2H)-yl)-3-hydroxy-4-methyltetrahydrofuran-2-yl)methyl dihydrogen Phosphate] | > 50000 nM
C[C@H](NP(=O)(OC[C@H]1O[C@@H](n2ccc(=O)[nH]c2=O)[C@](C)(N)[C@@H]1O)Oc1ccccc1)C(=O)OC1CCCCCC1 (single isomer, unassigned) [Example 7B] | 190 nM
C[C@H](NP(=O)(OC[C@H]1O[C@@H](n2ccc(=O)[nH]c2=O)[C@](C)(N)[C@@H]1O)Oc1ccccc1)C(=O)OC1CCCCCCC1 (single isomer, unassigned) [Example 10B] | 290 nM
CCCCOC(=O)[C@H](C)NP(=O)(OC[C@H]1O[C@@H](n2ccc(=O)[nH]c2=O)[C@](C)(N)[C@@H]1O)Oc1ccccc1 (single isomer, unassigned) [Example 19B] | 290 nM
